Data from patent publication US8574856B2, “Methods for determining the efficiency of a therapeutic” (Companion Diagnostics Inc., priority 2010, dated 2013).
Several values for one entry are separate records, joined by “and”; a condition that tells them apart may be missing. Identical values can stand only once.

Legend:
peroxidase = test: Peroxidase assay in saliva (Amplex Red); type: biochemical; conditions: 500 ppm; pooled or unpooled saliva; 30 minutes; FIGS. 30-33
Description: To determine the effect of various GRAS compounds as inhibitors of peroxidase activity, a standard assay using Amplex® Red (Life Technologies), which releases a fluorescent oxidation product.
The test compounds, such as GRAS materials or cocktails of same, were prepared at a concentration of 500 ppm in distilled water. For the assay, 50 μl samples of test compounds were mixed with 20-30 μl of saliva (either “pooled” or “unpooled”) prior to the addition of Amplex® Red. […] Reactions were allowed to run for 30 minutes during these assays.

galactose oxidase = conditions: dilute (3.5%) saliva; FIG. 17
lysozyme = target: T1, lysozyme (Homo sapiens, UniProt P61626); test: Lysozyme inhibition saliva screening, dilute (3.5%) saliva; type: biochemical; conditions: FIG. 16
T1 sequence (P61626 19-148): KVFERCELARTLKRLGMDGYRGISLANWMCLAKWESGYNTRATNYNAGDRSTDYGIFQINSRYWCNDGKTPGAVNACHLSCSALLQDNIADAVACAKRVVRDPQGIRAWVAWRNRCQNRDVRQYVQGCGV
Description: Further details of these five compounds may also be seen in Table 5.

α-amylase [1] = target: T2, α-amylase (Homo sapiens, UniProt P0DUB6); test: α-Amylase inhibition saliva screening, dilute (3.5%) saliva; type: biochemical; conditions: for absorbance at 405 nm, Ave / absorbance at 405 nm, single readings: test compound prepared at 5,000 ppm, 37° C.; for α-Amylase Inhibitor Activity: dilute (3.5%) saliva, FIG. 14
T2 sequence (P0DUB6 16-511): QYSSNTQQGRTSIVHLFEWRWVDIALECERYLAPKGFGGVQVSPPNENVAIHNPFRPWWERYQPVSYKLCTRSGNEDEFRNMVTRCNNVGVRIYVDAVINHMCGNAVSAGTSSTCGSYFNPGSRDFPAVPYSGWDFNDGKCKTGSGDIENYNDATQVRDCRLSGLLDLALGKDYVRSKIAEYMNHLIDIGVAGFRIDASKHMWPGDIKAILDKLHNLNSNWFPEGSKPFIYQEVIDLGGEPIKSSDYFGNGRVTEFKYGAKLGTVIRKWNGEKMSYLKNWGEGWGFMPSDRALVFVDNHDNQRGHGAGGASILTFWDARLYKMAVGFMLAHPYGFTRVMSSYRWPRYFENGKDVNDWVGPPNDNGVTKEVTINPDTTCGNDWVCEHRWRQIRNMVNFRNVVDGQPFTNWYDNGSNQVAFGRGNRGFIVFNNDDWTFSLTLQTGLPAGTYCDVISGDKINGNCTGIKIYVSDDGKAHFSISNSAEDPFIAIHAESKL
Description: Further details of these five compounds may also be seen in Table 4.

α-amylase [2] = target: T2, α-amylase; conditions: 100% saliva samples; FIG. 15
Description: Enzymatic activity of α-amylase on the substrate yields 2-chloro-p-nitrophenol, which can be measured spectrophotometrically at 405 nm. The amount of α-amylase activity present in the experimental sample is directly proportional to the increase in absorbance at 405 nm.

| Compound | peroxidase inhibition (peroxidase) | Galactose Oxidase Inhibitor Activity (galactose oxidase) | Lysozyme Inhibitor Activity (lysozyme) | absorbance at 405 nm, Ave (α-amylase [1]; 0 min) | absorbance at 405 nm, Ave (α-amylase [1]; 5 min) | absorbance at 405 nm, Ave (α-amylase [1]; 15 min) | α-Amylase Inhibitor Activity (α-amylase [1]) | inhibition of α-Amylase (α-amylase [2]) | other results |
| --- | --- | --- | --- | --- | --- | --- | --- | --- | --- |
| Cn1c(=O)c2c(ncn2C)n(C)c1=O [CDI-33, Caffeine] | showed significant peroxidase inhibition capabilities | – | – | – | – | – | – | – | – |
| COc1ccc(O)c(C(C)(C)C)c1 [CDI-39, 3-tert--butyl-hydroxyanisole] | showed significant peroxidase inhibition capabilities | shown to have Galactose Oxidase Inhibitor Activity | – | – | – | – | – | – | – |
| O=C(O)c1ccccc1 [CDI-40, Benzoic acid] | – | shown to have Galactose Oxidase Inhibitor Activity | shown to have Lysozyme Inhibitor Activity | – | – | – | – | – | – |
| CC(=O)O [CDI-47, Acetic acid] | – | shown to have Galactose Oxidase Inhibitor Activity | shown to have Lysozyme Inhibitor Activity | – | – | – | – | – | – |
| Aluminum potassium sulfate dodecahydrate [CDI-42] | showed significant peroxidase inhibition capabilities | shown to have Galactose Oxidase Inhibitor Activity | – | 0.92 | 1.85 | 2.29 | shown to have α-Amylase Inhibitor Activity | shown to inhibit α-Amylase | absorbance at 405 nm, single readings (α-amylase [1]; 0 min): 0.80 and 0.90 and 0.84; absorbance at 405 nm, single readings (α-amylase [1]; 5 min): 1.80 |
| Aluminum sulfate hydrate [CDI-34] | – | – | – | 0.40 | 0.50 | 0.56 | shown to have α-Amylase Inhibitor Activity | shown to inhibit α-Amylase | absorbance at 405 nm, single readings (α-amylase [1]; 0 min, sulfate hydrate): 0.40 and 0.36 and 0.45; absorbance at 405 nm, single readings (α-amylase [1]; 5 min, sulfate hydrate): 0.49 and 0.50 and 0.52; absorbance at 405 nm, single readings (α-amylase [1]; 15 min, sulfate hydrate): 0.53 and 0.61 and 0.54 and 0.56 |
